Reference: patent US11524955B2, “2,4-diamino-pyrimidine compounds and method for making and using the compounds” (Rigel Pharmaceuticals, Inc., priority 2016, dated 2022)
Like-named read-outs stand apart in the source and are kept apart here.

Experiments:
IRAK4 = molecular target: T1, IRAK4 (Homo sapiens, UniProt Q9NWZ3); assay: IRAK4 biochemical assay, ADP-Glo kinase assay
T1 sequence (Q9NWZ3 1-460): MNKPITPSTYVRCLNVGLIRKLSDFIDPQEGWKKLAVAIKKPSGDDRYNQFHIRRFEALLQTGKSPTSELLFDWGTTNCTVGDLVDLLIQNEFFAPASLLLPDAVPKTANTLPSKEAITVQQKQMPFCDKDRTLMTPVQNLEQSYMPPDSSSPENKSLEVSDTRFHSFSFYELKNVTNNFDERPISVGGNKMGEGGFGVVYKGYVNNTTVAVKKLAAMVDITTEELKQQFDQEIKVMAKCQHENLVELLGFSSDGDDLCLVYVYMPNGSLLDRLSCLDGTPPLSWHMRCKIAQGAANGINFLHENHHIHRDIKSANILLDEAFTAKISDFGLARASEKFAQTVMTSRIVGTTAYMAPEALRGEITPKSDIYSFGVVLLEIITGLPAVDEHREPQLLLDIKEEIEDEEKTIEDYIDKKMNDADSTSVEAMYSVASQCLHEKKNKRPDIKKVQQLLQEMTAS
Experimental: (§1) IRAK4 and TAK1 biochemical assays: kinase activity was measured by ADP-Glo kinase assay (Promega).

TAK1 = molecular target: T2, TAK1 (Homo sapiens, UniProt O43318); assay: TAK1 biochemical assay, ADP-Glo kinase assay
T2 sequence (O43318 1-303 limits assumed): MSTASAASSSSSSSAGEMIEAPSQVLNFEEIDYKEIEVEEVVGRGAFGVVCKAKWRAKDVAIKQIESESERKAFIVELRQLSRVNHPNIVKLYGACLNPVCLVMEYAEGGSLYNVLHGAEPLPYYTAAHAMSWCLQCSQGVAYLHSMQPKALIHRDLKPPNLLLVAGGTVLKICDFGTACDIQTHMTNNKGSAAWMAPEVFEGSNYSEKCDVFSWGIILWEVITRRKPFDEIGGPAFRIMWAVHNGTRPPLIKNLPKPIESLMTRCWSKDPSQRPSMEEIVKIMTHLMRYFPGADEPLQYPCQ
Experimental: as §1

IL-23, THP1 cells = assay: IL-23 assay, THP1 cells primed with IFNg, LPS stimulated, ELISA; assay type: cell-based; settings: Homo sapiens, THP-1
Experimental: (§2) IL-23 assays: THP1 cells or human primary monocyte-derived dendritic cells (DC) were primed overnight with IFNg. Following one hour preincubation with compound, cells were stimulated overnight with LPS. IL-23 released into the media was quantitated by ELISA.

IL-23, dendritic cells = assay: IL-23 assay, human primary monocyte-derived dendritic cells, LPS stimulated, ELISA; assay type: cell-based; settings: Dendritic cell
Experimental: as §2

IL-6, HUVEC = assay: IL-6 assay, HUVEC, ELISA; assay type: cell-based, human; settings: Homo sapiens
IL-8, HUVEC = assay: IL-8 assay, HUVEC, ELISA; assay type: cell-based, human; settings: Homo sapiens

IC50 (IRAK4): 3 nM
IC50 (TAK1): 17 nM
IC50 (IL-23, THP1 cells; THP1 cells, IFNy primed, LPS stimulated, 10 pt, read-out: IL23-p19 ELISA, THP1-IFNy, LPS, 10 pt): < 100 nM
IC50 (IL-23, THP1 cells; THP cells, LPS, read-out: IL23 (THP, LPS) IC50): 100 nM
IC50 (IL-23, THP1 cells; read-out: IL23 (LPS induced) IC50): 100 nM
IC50 (IL-23, dendritic cells; LPS stimulated, 10 pt, read-out: IL23-P19, ELISA, Dendritic, LPS, 10 pt): < 250 nM
IC50 (IL-23, dendritic cells; LPS, read-out: IL23 (Dentritic Cells, LPS) IC50): 110 nM
Structure (SMILES): NC(=O)[C@@H]1[C@H](Nc2nc(Nc3cccc(C(=O)N4CCCC4)c3)ncc2-c2ccnc(F)c2)[C@H]2C=C[C@@H]1C2 [Compound 16, (1S,2S,3R,4R)-3-((5-(2-fluoropyridin-4-yl)-2-((3-(pyrrolidine-1-carbonyl)phenyl)amino)pyrimidin-4-yl)amino)bicyclo[2.2.1] hept-5-ene-2-carboxamide]
IC50 (IL-6, HUVEC; read-out: IL6 (HUVEC, IL-1β) IC50): 110 nM
IC50 (IL-6, HUVEC; read-out: IL6 (HUVEC, LPS) IC50): 120 nM
IC50 (IL-6, HUVEC; read-out: IL6 (HUVEC, TNFα) IC50): 1200 nM
IC50 (IL-8, HUVEC; read-out: IL8 (HUVEC, IL-1β) IC50): 250 nM
IC50 (IL-8, HUVEC; read-out: IL8 (HUVEC, LPS) IC50): 1000 nM
IC50 (IL-8, HUVEC; read-out: IL8 (HUVEC, TNFα) IC50): 3000 nM
